Data as given in publication PMC6915728 (Nature Communications, 2019).
Read-outs that look alike come from different tables or passages of the source.

Columns and labels:
[1] = test system: E. coli BW25113 overexpression strains (ASKA plasmids); experiment: Minimum inhibitory concentration (MIC), serial broth dilution, single-gene overexpression strains vs empty-vector control; assay type: cell-based, Escherichia coli; settings: for Relative MIC: broth dilution, MS medium, 100 µM IPTG, 30 °C, 20-24 h, OD600, 3 replicates
In short: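 E. coli overexpression strains grown in MS medium with chloramphenicol, induced with 100 µM IPTG for 1 h at 30 °C, then about half-million cells inoculated into 12-step AMP dilutions (typically 1.2-fold steps). OD600 read after 20–24 h at 30 °C with shaking; triplicate strains compared with empty-vector control.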

E. coli BW25113 ΔmlaD = experiment: MIC, serial broth dilution, mlaD knockout strain vs wild type; assay type: cell-based, Escherichia coli; settings: mlaD deletion strain vs control E. coli BW25113; average of 3 replicates
Method: What could be the mechanism behind the antagonistic action of this pathway on membrane- versus intracellular-targeting AMPs? Since MlaD is part of a protein complex, it may lead to a loss-of-function effect upon overexpression[41],[42]. To test this, we asked whether overexpression and deletion of mlaD cause similar changes in susceptibility to a representative set of membrane- and intracellular-targeting AMPs.
Minimum inhibitory concentrations (MIC) were determined with a standard serial broth dilution technique with a minor modification. Specifically, instead of a two-fold dilution series, smaller AMP concentration steps were used (typically 1.2-fold) for two reasons. […] Second, gene overexpressions caused typically only small changes in the MICs of AMPs and therefore higher resolution was required. The protocol was as follows. From a stock solution of an AMP, 12-steps serial dilution was prepared in fresh MS medium in 96-well microtiter plates. Each AMP was represented in 11 different concentrations (3 wells per AMP concentration per strain). Three wells contained only medium to check the growth in the absence of AMP. After overnight growth in MS medium supplemented with chloramphenicol, bacterial strains were diluted 20-fold into fresh MS medium and grown until the cell density reached OD600 ~1. Cells were induced by 100 µM of IPTG and incubated for 1 h at 30 °C with continuous shaking at 300 rpm. Following incubation, approximately half-million cells were inoculated into the wells of the 96-well microtiter plate with a 96‐pin replicator. We used three independent replicates for each strain and the corresponding control. Two rows in the 96-well plate contained only MS medium in order to obtain the background OD value of the medium. Plates were incubated at 30 °C with continuous shaking at 300 rpm. After 20–24 h of incubation, OD600 values were measured in a microplate reader (Biotek Synergy 2).
A mlaD knockout strain of E. coli BW25113 carrying a kanamycin resistance cassette in the position of the gene was selected from the KEIO collection. The resistance marker was removed using plasmid-borne (pFT-A) expression of FLP recombinase leading to excision of the kanamycin resistance cassette. Cassette excision was verified by a polymerase chain reaction using the primers mlaD_del_ver_Fw (5′- […]) and mlaD_del_ver_Rev (5′- […]).
Supplementary Figure 13. […] The bacterial susceptibility of the mutant to AMPs was tested by MIC determination. Growth is shown relative to growth in the absence of the corresponding AMP. The blue line represents the mlaD knockout strain and the orange line represents the control strain (wild-type E. coli BW25113). Error bars indicate the standard errors based on three biological replicates. Source data are provided in the Source Data file.

[2] = test system: E. coli gene overexpression; settings: cited from earlier work
From the text: Supplement 41467_2019_13618_MOESM1_ESM.docx, table 1: Supplementary Table 1. Collected examples of E. coli gene overexpression from the literature as a confirmation of our chemical-genetic screen results. | column: Overexpression phenotype

bacterial membrane = settings: literature mining; ref superscript numbers in the cell, listed in Supplementary Data 7 sheet References; cited from earlier work
From the text: Supplement 41467_2019_13618_MOESM10_ESM.xlsx, sheet "AMP details" | column: Pore formation

TSSPPAAVVVRRRRRRRRRRRRRRRRRRR [PROA, Protamine, source herring, purchased from Sigma-Aldrich; cluster C3]
Average relative change in MIC ([1]; mlaD overexpression strain relative to control (wild-type+empty vector), 3 replicates each, from optical density values of serial dilution plates, AMP in µg ml-1): 0.70
Relative MIC ([1]; overexpression strain cvpA, MIC of overexpression strain / MIC of empty-plasmid control): 0.78
Relative MIC ([1]; overexpression strain gadW, MIC of overexpression strain / MIC of empty-plasmid control): 0.78
Relative MIC ([1]; overexpression strain lptB, MIC of overexpression strain / MIC of empty-plasmid control): 0.51
Relative MIC ([1]; overexpression strain mlaD, MIC of the overexpression strain / MIC of the control strain (wild-type carrying the empty plasmid)): 0.72
Relative MIC ([1]; overexpression strain mzrA, MIC of overexpression strain / MIC of empty-plasmid control): 0.36
Relative MIC ([1]; overexpression strain nikB, MIC of overexpression strain / MIC of empty-plasmid control): <0.71
Relative MIC ([1]; overexpression strain ompT, MIC of overexpression strain / MIC of empty-plasmid control): >2.5
Relative MIC ([1]; overexpression strain ptsN, MIC of overexpression strain / MIC of empty-plasmid control): 1.47
Relative MIC ([1]; overexpression strain uhpC, MIC of overexpression strain / MIC of empty-plasmid control): <0.61
Relative MIC ([1]; overexpression strain yhbJ, MIC of overexpression strain / MIC of empty-plasmid control): 0.69
Relative MIC ([1]; overexpression strain ytjB, MIC of overexpression strain / MIC of empty-plasmid control): 0.8
Average relative change in MIC (E. coli BW25113 ΔmlaD): 0.43
Overexpression phenotype, Literature ([2]; gene nlpE overexpressed, ref 6 (Griffin 2013)): Resistance^6
Overexpression phenotype, Literature ([2]; gene ompT overexpressed, ref 4 (Stumpe et al. 1998)): Resistance^4
Pore formation (whether AMP makes pores in the bacterial membrane) (bacterial membrane): No43
